Several values for one entry are separate records, joined by “and”; a condition that tells them apart may be missing. Equal values may be shown once.
Details: Liquid, transient hot wire

O=C(C(F)(F)C(F)(F)F)C(F)(C(F)(F)F)C(F)(F)F [dodecafluoro-2-methylpentan-3-one]
Details | thermal conductivity
182.75 K, 277 kPa | 0.07883 W/m/K
182.75 K, 315 kPa | 0.07859 W/m/K
182.89 K, 13189 kPa | 0.08133 W/m/K
182.89 K, 19887 kPa | 0.08218 W/m/K
182.89 K, 19910 kPa | 0.08244 W/m/K
182.89 K, 21592 kPa | 0.08301 W/m/K
182.89 K, 21600 kPa | 0.08295 W/m/K
182.9 K, 13187 kPa | 0.08114 W/m/K
183.09 K, 352 kPa | 0.0792 W/m/K
183.09 K, 355 kPa | 0.07913 W/m/K
183.16 K, 13354 kPa | 0.08121 W/m/K
183.16 K, 13358 kPa | 0.08178 W/m/K
183.18 K, 6554 kPa | 0.07996 W/m/K
183.18 K, 6555 kPa | 0.08035 W/m/K
183.19 K, 88 kPa | 0.07924 W/m/K
183.19 K, 92 kPa | 0.07941 W/m/K
183.21 K, 21596 kPa | 0.08274 W/m/K
183.21 K, 21614 kPa | 0.08282 W/m/K
183.22 K, 13197 kPa | 0.08104 W/m/K
183.22 K, 13203 kPa | 0.08122 W/m/K
183.22 K, 19909 kPa | 0.08195 W/m/K
183.22 K, 19917 kPa | 0.08246 W/m/K
183.46 K, 394 kPa | 0.07899 W/m/K
183.47 K, 372 kPa | 0.07904 W/m/K
183.49 K, 13357 kPa | 0.0812 W/m/K
183.49 K, 13358 kPa | 0.08133 W/m/K
183.51 K, 6548 kPa | 0.08023 W/m/K
183.51 K, 6554 kPa | 0.08027 W/m/K
183.52 K, 86 kPa | 0.07888 W/m/K
183.53 K, 84 kPa | 0.07899 W/m/K
183.57 K, 19904 kPa | 0.08223 W/m/K
183.57 K, 19917 kPa | 0.08242 W/m/K
183.57 K, 21616 kPa | 0.0827 W/m/K
183.57 K, 21619 kPa | 0.08258 W/m/K
183.58 K, 13189 kPa | 0.08088 W/m/K and 0.0813 W/m/K
183.86 K, 13353 kPa | 0.08129 W/m/K
183.86 K, 13354 kPa | 0.08129 W/m/K
183.88 K, 417 kPa | 0.07826 W/m/K
183.88 K, 441 kPa | 0.07853 W/m/K
183.88 K, 6566 kPa | 0.0801 W/m/K
183.88 K, 6568 kPa | 0.07993 W/m/K
183.9 K, 66 kPa | 0.07888 W/m/K
183.96 K, 21629 kPa | 0.08212 W/m/K
183.97 K, 19889 kPa | 0.08191 W/m/K
183.97 K, 19910 kPa | 0.08222 W/m/K
183.97 K, 21622 kPa | 0.0819 W/m/K
183.98 K, 13198 kPa | 0.08092 W/m/K
183.98 K, 13202 kPa | 0.08101 W/m/K
184.26 K, 13357 kPa | 0.08106 W/m/K
184.26 K, 13366 kPa | 0.08106 W/m/K
184.29 K, 6565 kPa | 0.07964 W/m/K
184.29 K, 6575 kPa | 0.07978 W/m/K
184.31 K, 72 kPa | 0.07867 W/m/K
184.31 K, 77 kPa | 0.07869 W/m/K
184.34 K, 428 kPa | 0.07819 W/m/K
184.34 K, 453 kPa | 0.0783 W/m/K
184.41 K, 19891 kPa | 0.08157 W/m/K
184.41 K, 19917 kPa | 0.08156 W/m/K
184.41 K, 21623 kPa | 0.08222 W/m/K
184.41 K, 21641 kPa | 0.08226 W/m/K
184.43 K, 13196 kPa | 0.0804 W/m/K
184.43 K, 13197 kPa | 0.08067 W/m/K
184.7 K, 13354 kPa | 0.08048 W/m/K
184.71 K, 13360 kPa | 0.0804 W/m/K
184.74 K, 6561 kPa | 0.07906 W/m/K
184.74 K, 6562 kPa | 0.07913 W/m/K
184.76 K, 74 kPa | 0.07764 W/m/K
184.77 K, 70 kPa | 0.07835 W/m/K
191.32 K, 109 kPa | 0.078 W/m/K
191.32 K, 120 kPa | 0.07787 W/m/K
191.32 K, 6011 kPa | 0.07821 W/m/K
191.32 K, 6012 kPa | 0.0792 W/m/K
191.32 K, 9411 kPa | 0.08012 W/m/K
191.33 K, 9419 kPa | 0.07979 W/m/K
191.63 K, 28269 kPa | 0.08273 W/m/K
191.63 K, 28273 kPa | 0.08292 W/m/K
191.63 K, 36162 kPa | 0.08425 W/m/K
191.64 K, 36124 kPa | 0.08408 W/m/K
191.64 K, 44196 kPa | 0.08537 W/m/K
191.64 K, 44213 kPa | 0.08541 W/m/K
191.64 K, 52630 kPa | 0.08621 W/m/K
191.65 K, 52615 kPa | 0.08649 W/m/K
191.65 K, 61105 kPa | 0.08792 W/m/K
191.65 K, 61123 kPa | 0.08784 W/m/K
191.65 K, 67633 kPa | 0.08918 W/m/K
191.65 K, 67642 kPa | 0.08859 W/m/K
191.66 K, 154 kPa | 0.07783 W/m/K
191.66 K, 6412 kPa | 0.07892 W/m/K
191.66 K, 6427 kPa | 0.07902 W/m/K
191.66 K, 13243 kPa | 0.0804 W/m/K
191.66 K, 13255 kPa | 0.08025 W/m/K
191.66 K, 20239 kPa | 0.08175 W/m/K
191.66 K, 20246 kPa | 0.08164 W/m/K
191.67 K, 112 kPa | 0.07744 W/m/K
191.67 K, 147 kPa | 0.07786 W/m/K
191.67 K, 6032 kPa | 0.07883 W/m/K
191.67 K, 9411 kPa | 0.07946 W/m/K
191.67 K, 9418 kPa | 0.07986 W/m/K
191.68 K, 121 kPa | 0.07734 W/m/K
191.68 K, 6013 kPa | 0.07908 W/m/K
192 K, 28272 kPa | 0.08275 W/m/K
192 K, 36150 kPa | 0.084 W/m/K
192 K, 36164 kPa | 0.08417 W/m/K
192 K, 44217 kPa | 0.08526 W/m/K
192 K, 52622 kPa | 0.08646 W/m/K
192 K, 52639 kPa | 0.08637 W/m/K
192 K, 61093 kPa | 0.08779 W/m/K
192 K, 67605 kPa | 0.08855 W/m/K
192.01 K, 28268 kPa | 0.08282 W/m/K
192.01 K, 44219 kPa | 0.08526 W/m/K
192.01 K, 61086 kPa | 0.08772 W/m/K
192.01 K, 67622 kPa | 0.08858 W/m/K
192.04 K, 6436 kPa | 0.07895 W/m/K
192.04 K, 13246 kPa | 0.08024 W/m/K
192.04 K, 13262 kPa | 0.08043 W/m/K
192.04 K, 20234 kPa | 0.08155 W/m/K
192.05 K, 6439 kPa | 0.07899 W/m/K
192.05 K, 20236 kPa | 0.0816 W/m/K
192.06 K, 157 kPa | 0.07749 W/m/K
192.06 K, 162 kPa | 0.07742 W/m/K
192.06 K, 9415 kPa | 0.07961 W/m/K
192.06 K, 9425 kPa | 0.07956 W/m/K
192.07 K, 124 kPa | 0.07716 W/m/K
192.07 K, 6029 kPa | 0.07889 W/m/K
192.07 K, 6037 kPa | 0.07899 W/m/K
192.08 K, 123 kPa | 0.07723 W/m/K
192.39 K, 61059 kPa | 0.08761 W/m/K
192.39 K, 67589 kPa | 0.08872 W/m/K
192.4 K, 44218 kPa | 0.08528 W/m/K
192.4 K, 52626 kPa | 0.08558 W/m/K
192.4 K, 61080 kPa | 0.08772 W/m/K
192.4 K, 67603 kPa | 0.08923 W/m/K
192.41 K, 28286 kPa | 0.08272 W/m/K
192.41 K, 36171 kPa | 0.08404 W/m/K
192.41 K, 44213 kPa | 0.08463 W/m/K
192.41 K, 52617 kPa | 0.08563 W/m/K
192.42 K, 28275 kPa | 0.08201 W/m/K
192.42 K, 36146 kPa | 0.08395 W/m/K
192.45 K, 20243 kPa | 0.08132 W/m/K
192.46 K, 20239 kPa | 0.08136 W/m/K
192.47 K, 13253 kPa | 0.08039 W/m/K
192.47 K, 13262 kPa | 0.08013 W/m/K
192.48 K, 6426 kPa | 0.07848 W/m/K
192.48 K, 6434 kPa | 0.07874 W/m/K
192.49 K, 9414 kPa | 0.0792 W/m/K
192.5 K, 157 kPa | 0.07741 W/m/K
192.5 K, 161 kPa | 0.07715 W/m/K
192.5 K, 6046 kPa | 0.07875 W/m/K and 0.07884 W/m/K
192.5 K, 9410 kPa | 0.07887 W/m/K
192.51 K, 147 kPa | 0.0771 W/m/K
192.52 K, 131 kPa | 0.07714 W/m/K
192.82 K, 67573 kPa | 0.08822 W/m/K
192.82 K, 67584 kPa | 0.08836 W/m/K
192.83 K, 52603 kPa | 0.08551 W/m/K
192.83 K, 61059 kPa | 0.08671 W/m/K
192.83 K, 61067 kPa | 0.08703 W/m/K
192.84 K, 44211 kPa | 0.08516 W/m/K
192.84 K, 52611 kPa | 0.08588 W/m/K
192.85 K, 44221 kPa | 0.08537 W/m/K
192.86 K, 36164 kPa | 0.08389 W/m/K and 0.08381 W/m/K
192.87 K, 28295 kPa | 0.08266 W/m/K
192.87 K, 28317 kPa | 0.08252 W/m/K
192.92 K, 20232 kPa | 0.08125 W/m/K
192.92 K, 20252 kPa | 0.08125 W/m/K
192.94 K, 13254 kPa | 0.08003 W/m/K
192.96 K, 6419 kPa | 0.07805 W/m/K
192.96 K, 6437 kPa | 0.07805 W/m/K

Source: the NIST ThermoML archive (doi:10.1021/acs.jced.8b00132)
